These results are taken from patent US5461049A, “Amide tetrazole ACAT inhibitors” (Warner-Lambert Company, priority 1994, dated 1995).

Test [1] has as its target T1, acyl-CoA: cholesterol acyltransferase (ACAT) (Rattus norvegicus, UniProt Q7TQM4).
T1 construct: tissue preparation containing rat liver microsomes; from tissue; host or cells: rat liver microsomes
T1 sequence (Q7TQM4 1-524): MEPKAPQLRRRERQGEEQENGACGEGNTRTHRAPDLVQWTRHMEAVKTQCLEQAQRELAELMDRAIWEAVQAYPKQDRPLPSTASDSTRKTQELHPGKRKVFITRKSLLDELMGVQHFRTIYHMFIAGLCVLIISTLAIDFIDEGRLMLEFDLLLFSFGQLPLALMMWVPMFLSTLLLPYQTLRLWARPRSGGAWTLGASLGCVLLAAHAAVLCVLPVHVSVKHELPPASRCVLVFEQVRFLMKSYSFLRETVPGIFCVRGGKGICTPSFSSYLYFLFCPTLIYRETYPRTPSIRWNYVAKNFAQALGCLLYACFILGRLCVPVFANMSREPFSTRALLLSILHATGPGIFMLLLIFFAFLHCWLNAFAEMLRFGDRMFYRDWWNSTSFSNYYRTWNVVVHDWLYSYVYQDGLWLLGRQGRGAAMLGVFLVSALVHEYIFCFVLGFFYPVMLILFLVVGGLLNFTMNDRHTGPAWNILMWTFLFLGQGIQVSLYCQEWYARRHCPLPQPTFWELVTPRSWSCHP
The test is described as follows: ACAT inhibition in vitro (LAI): radiolabeled cholesterol oleate formed from radiolabeled oleic acid in rat liver microsomes. Format: biochemical. Conditions: concentration required to inhibit the activity of the enzyme by 50%. As for the experimental part:
The ability of representative compounds of the present invention to inhibit ACAT was measured using an in vitro test more fully described in F. J. Field and R. G. Salone, Biochemica et Biophysica Acta, 712:557-570 (1982). The test assesses the ability of a test compound to inhibit the acylation of cholesterol by oleic acid by measuring the amount of radiolabeled cholesterol oleate formed from radiolabeled oleic acid in a tissue preparation containing rat liver microsomes (designated LAI).
For orientation: Liver microsomes are a subcellular fraction often used to study metabolism.

Test [2] can be described thus: APCC in vivo screen: change in total cholesterol in rats on high fat, high cholesterol diet. Conditions: Rattus norvegicus, po, 16 h; 30 mg/kg by gavage, single dose at 4 PM, sacrificed at 8 AM; 5.5% peanut oil, 1.5% cholesterol, 0.5% cholic acid diet; vs control animals given vehicle and diet only; read-out: APCC (% change in TC). More on the design: species or system male Sprague-Dawley rats. The source says:
In one in vivo screen designated APCC, male Sprague-Dawley rats (200-225 g body weight) were randomly divided into treatment groups and dosed at 4 PM with either vehicle (CMC/Tween) or suspensions of invention compounds in vehicle. The normal chow diet was then replaced with a high fat, high cholesterol diet (5.5% peanut oil, 1.5% cholesterol, and 0.5% cholic acid). The rats consumed this diet ad libitum during the night and were sacrificed at 8 AM to obtain blood samples for cholesterol analysis using standard procedures. Statistical differences between mean cholesterol values for the same vehicle were determined using analysis of variance followed by Fisher's least significant test. The results of this trial for representative compounds of the present invention also appear in Table I as the percent change in total cholesterol (%TC) from control animals given vehicle and diet only. All compounds in the APCC test reported in Table 1 were administered by garage at 30 mg/kg.

Each structure is given as a SMILES string.

As usually defined, the IC50 is the concentration at which inhibition is half-maximal. A high value points to a need for much substance. With `CCCCCCCCCCCCn1nnnc1/C(=N\OCC)C(=O)Nc1c(C(C)C)cccc1C(C)C` [Example 41, E-N-(2,6-Diisopropylphenyl)-2-(1-dodecyl-1H-tetrazol-5-yl)-2-ethoxyimino-acetamide], half-maximal inhibition in test [1] (IC50) was put at 25 nM. Also, the change in vivo at 30 mg/kg in test [2] is -65%.
